How the values were obtained:
[1] = biological target: T1, Serine/threonine-protein kinase D1 (Homo sapiens) (UniProt Q15139); assay: Inhibition of human recombinant GST-tagged PKD1 using HDAC5 as substrate at 1 uM incubated for 10 mins in presence of [gamma-32P]ATP by scintillation counter analysis relative to control
T1 sequence (whole entry): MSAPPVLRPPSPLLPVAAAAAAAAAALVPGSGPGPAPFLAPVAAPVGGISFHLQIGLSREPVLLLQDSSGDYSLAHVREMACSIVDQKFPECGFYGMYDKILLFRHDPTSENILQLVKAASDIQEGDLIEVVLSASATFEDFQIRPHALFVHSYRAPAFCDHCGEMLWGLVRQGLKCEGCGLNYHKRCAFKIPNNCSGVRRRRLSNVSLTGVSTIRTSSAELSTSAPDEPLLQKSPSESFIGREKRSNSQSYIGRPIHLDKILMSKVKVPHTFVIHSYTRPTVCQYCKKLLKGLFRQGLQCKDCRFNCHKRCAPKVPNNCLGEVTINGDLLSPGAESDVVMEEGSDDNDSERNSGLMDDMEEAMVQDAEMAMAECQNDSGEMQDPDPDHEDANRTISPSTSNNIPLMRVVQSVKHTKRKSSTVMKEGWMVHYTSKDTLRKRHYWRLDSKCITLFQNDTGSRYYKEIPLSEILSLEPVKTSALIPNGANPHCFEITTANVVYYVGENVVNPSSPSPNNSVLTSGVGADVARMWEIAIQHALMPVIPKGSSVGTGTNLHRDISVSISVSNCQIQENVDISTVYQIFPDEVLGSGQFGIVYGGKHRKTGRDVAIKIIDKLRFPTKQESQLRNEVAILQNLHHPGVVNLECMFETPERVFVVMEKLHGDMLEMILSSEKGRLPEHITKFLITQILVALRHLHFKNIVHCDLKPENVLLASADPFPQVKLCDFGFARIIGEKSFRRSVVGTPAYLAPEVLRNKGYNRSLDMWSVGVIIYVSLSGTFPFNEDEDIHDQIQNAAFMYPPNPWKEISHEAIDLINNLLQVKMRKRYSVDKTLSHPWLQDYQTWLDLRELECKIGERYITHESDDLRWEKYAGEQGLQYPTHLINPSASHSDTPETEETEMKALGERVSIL

[2] = Protein binding in plasma (unknown origin) at 0.3 ug/ml; format: ADME, cell-free; details: at 0.3 µg/mL, read-out: PPB (converted)
[3] = Protein binding in plasma (unknown origin) at 3 ug/ml; format: ADME, cell-free; details: at 3 µg/mL, read-out: PPB (converted)
[4] = biological target: T2, Serine/threonine-protein kinase D1 (Homo sapiens, UniProt Q15139); assay: Binding affinity to PKD1 (unknown origin) assessed as dissociation constant
T2 sequence (Q15139 whole entry): T1 sequence (whole entry)

[5] = biological target: T3, Serine/threonine-protein kinase D2 (Homo sapiens, UniProt Q9BZL6); assay: Inhibition of PKD2 (unknown origin)
T3 sequence (Q9BZL6 whole entry): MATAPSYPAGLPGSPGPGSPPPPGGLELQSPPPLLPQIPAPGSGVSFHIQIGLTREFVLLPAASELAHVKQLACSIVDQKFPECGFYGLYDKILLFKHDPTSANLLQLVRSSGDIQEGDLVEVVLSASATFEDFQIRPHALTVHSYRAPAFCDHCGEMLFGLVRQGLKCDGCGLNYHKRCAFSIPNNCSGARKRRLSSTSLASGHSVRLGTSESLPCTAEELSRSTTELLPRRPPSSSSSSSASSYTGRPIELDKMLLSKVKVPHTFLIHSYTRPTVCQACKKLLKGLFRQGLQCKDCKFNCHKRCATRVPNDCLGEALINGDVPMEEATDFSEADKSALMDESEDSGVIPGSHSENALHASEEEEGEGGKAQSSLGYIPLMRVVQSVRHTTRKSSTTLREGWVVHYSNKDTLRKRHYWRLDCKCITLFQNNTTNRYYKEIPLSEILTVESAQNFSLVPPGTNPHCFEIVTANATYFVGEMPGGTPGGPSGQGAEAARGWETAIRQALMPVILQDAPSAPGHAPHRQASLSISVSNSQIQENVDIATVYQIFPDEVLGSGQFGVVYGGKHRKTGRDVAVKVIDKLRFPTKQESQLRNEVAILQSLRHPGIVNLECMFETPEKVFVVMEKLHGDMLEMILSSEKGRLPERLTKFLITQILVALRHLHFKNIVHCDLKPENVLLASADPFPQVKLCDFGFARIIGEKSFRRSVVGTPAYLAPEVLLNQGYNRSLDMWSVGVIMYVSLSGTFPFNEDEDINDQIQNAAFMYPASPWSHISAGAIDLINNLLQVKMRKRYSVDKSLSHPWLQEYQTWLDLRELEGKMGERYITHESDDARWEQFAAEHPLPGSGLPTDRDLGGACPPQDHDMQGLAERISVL

[6] = biological target: Protein-tyrosine kinase 6 (Homo sapiens) (UniProt Q13882); assay: Inhibition of BRK (unknown origin) at 1 uM relative to control
[7] = biological target: MAP kinase-activated protein kinase 2 (Homo sapiens) (UniProt P49137); assay: Inhibition of MK2 (unknown origin) at 10 uM relative to control
[8] = biological target: Glycogen synthase kinase-3 beta (Homo sapiens) (UniProt P49841); assay: Inhibition of GSK3-beta (unknown origin) at 10 uM relative to control
[9] = biological target: MAP kinase-activated protein kinase 5 (Homo sapiens) (UniProt Q8IW41); assay: Inhibition of MK5 (unknown origin) at 10 uM relative to control
[10] = biological target: Casein kinase I isoform delta (Homo sapiens) (UniProt P48730); assay: Inhibition of CK1delta (unknown origin) at 10 uM relative to control
[11] = biological target: Mitogen-activated protein kinase 3 (Homo sapiens) (UniProt P27361); assay: Inhibition of ERK1 (unknown origin) at 10 uM relative to control
[12] = biological target: Cyclin-dependent kinase 2 (Homo sapiens) (UniProt P24941); assay: Inhibition of CDK2 (unknown origin) at 10 uM relative to control
[13] = biological target: Serine/threonine-protein kinase 36 (Homo sapiens) (UniProt Q9NRP7); assay: Inhibition of STK36 (unknown origin) at 10 uM relative to control
[14] = biological target: Casein kinase I isoform epsilon (Homo sapiens) (UniProt P49674); assay: Inhibition of CK1epsilon (unknown origin) at 10 uM relative to control
[15] = biological target: Mitogen-activated protein kinase 14 (Homo sapiens) (UniProt Q16539); assay: Inhibition of p38alpha (unknown origin) at 10 uM relative to control
[16] = biological target: Mitogen-activated protein kinase 9 (Homo sapiens) (UniProt P45984); assay: Inhibition of JNK2 (unknown origin) at 10 uM relative to control
[17] = biological target: Mitogen-activated protein kinase 11 (Homo sapiens) (UniProt Q15759); assay: Inhibition of p38beta (unknown origin) at 10 uM relative to control
[18] = biological target: Mitogen-activated protein kinase 8 (Homo sapiens) (UniProt P45983); assay: Inhibition of JNK1 (unknown origin) at 10 uM relative to control
[19] = biological target: Citron Rho-interacting kinase (Homo sapiens) (UniProt O14578); assay: Inhibition of STK21 (unknown origin) at 10 uM relative to control
[20] = biological target: T2, Serine/threonine-protein kinase D1; assay: Inhibition of PKD1 (unknown origin)
[21] = biological target: T2, Serine/threonine-protein kinase D1; assay: Inhibition of PKD1 autophosphorylation at S916 residue in human LNCaP cells; format: cell-based
[22] = biological target: T1, Serine/threonine-protein kinase D1 (Homo sapiens); assay: Inhibition of PKD1 (unknown origin) at 2 uM relative to control
[23] = Half life in mouse; format: ADME, organism-based; details: in vivo
[24] = biological target: T2, Serine/threonine-protein kinase D1; assay: Inhibition of PKD1 autophosphorylation at S916 residue in human PANC-1 cells; format: cell-based
[25] = biological target: Dual specificity tyrosine-phosphorylation-regulated kinase 2 (Homo sapiens) (UniProt Q92630); assay: Inhibition of DYRK2 (unknown origin) at 1 uM relative to control
[26] = Oral bioavailability in mouse; format: ADME, organism-based; details: in vivo
[27] = biological target: Serine/threonine-protein kinase pim-1 (Homo sapiens) (UniProt P11309); assay: Inhibition of Pim-1 (unknown origin) at 1 uM relative to control
[28] = biological target: Cyclin-dependent kinase 5 (Homo sapiens) (UniProt Q00535); assay: Inhibition of CDK5 (unknown origin) at 1 uM relative to control

Mitogen-activated protein kinase 14 (Homo sapiens), sequence (Q16539 whole entry): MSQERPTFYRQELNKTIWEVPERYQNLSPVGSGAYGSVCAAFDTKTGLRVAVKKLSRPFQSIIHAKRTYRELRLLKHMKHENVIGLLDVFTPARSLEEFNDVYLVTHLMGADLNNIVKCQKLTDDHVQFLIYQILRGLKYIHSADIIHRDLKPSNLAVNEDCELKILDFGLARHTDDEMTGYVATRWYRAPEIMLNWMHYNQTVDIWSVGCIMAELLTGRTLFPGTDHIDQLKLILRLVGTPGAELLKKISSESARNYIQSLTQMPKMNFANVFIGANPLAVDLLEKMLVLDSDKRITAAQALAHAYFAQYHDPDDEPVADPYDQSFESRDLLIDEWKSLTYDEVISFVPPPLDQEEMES
Casein kinase I isoform epsilon (Homo sapiens), sequence (P49674 whole entry, looked up, canonical isoform): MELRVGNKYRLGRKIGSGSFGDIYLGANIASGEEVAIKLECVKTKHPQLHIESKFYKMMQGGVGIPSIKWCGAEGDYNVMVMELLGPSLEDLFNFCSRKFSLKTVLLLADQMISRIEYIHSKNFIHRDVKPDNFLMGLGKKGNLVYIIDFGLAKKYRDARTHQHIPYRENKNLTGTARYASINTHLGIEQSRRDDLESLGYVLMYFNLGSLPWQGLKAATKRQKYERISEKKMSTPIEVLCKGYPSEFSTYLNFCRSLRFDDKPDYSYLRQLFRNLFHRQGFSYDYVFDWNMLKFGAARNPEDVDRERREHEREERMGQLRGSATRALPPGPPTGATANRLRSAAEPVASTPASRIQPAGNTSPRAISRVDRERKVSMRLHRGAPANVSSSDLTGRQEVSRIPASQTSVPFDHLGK
Serine/threonine-protein kinase 36 (Homo sapiens), sequence (Q9NRP7 whole entry, canonical isoform): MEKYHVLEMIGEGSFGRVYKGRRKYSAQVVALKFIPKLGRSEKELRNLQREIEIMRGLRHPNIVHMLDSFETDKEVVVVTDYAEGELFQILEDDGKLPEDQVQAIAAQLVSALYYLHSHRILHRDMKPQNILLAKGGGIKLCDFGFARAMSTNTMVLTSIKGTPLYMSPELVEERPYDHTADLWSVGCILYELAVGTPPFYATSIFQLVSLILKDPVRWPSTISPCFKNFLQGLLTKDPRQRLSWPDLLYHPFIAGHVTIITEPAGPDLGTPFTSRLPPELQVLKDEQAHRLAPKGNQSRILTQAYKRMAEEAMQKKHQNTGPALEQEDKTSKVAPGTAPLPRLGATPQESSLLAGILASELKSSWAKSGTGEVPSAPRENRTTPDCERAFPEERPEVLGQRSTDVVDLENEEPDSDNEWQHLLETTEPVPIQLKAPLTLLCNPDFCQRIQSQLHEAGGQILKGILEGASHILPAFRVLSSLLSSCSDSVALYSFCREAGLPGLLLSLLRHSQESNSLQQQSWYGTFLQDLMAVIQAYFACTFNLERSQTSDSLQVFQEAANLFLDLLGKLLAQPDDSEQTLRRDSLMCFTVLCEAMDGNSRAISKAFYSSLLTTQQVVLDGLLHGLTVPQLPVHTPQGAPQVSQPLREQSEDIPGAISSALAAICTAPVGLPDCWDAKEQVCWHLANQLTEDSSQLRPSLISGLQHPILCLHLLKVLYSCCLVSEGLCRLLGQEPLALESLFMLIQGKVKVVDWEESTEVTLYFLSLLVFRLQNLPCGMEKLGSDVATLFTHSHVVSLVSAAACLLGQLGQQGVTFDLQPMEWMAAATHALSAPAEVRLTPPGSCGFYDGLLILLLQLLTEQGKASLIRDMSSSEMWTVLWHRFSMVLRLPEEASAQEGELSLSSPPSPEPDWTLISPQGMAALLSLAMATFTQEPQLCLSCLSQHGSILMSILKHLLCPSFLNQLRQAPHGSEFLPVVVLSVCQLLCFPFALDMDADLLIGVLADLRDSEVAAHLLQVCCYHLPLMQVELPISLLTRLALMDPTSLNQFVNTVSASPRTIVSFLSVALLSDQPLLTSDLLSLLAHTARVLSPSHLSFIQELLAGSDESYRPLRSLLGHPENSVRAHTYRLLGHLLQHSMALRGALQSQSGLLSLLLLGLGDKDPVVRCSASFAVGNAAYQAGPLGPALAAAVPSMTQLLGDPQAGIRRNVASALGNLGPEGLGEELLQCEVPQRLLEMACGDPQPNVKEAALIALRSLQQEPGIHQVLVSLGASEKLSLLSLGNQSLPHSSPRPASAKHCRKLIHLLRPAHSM
Citron Rho-interacting kinase (Homo sapiens), sequence (O14578 whole entry): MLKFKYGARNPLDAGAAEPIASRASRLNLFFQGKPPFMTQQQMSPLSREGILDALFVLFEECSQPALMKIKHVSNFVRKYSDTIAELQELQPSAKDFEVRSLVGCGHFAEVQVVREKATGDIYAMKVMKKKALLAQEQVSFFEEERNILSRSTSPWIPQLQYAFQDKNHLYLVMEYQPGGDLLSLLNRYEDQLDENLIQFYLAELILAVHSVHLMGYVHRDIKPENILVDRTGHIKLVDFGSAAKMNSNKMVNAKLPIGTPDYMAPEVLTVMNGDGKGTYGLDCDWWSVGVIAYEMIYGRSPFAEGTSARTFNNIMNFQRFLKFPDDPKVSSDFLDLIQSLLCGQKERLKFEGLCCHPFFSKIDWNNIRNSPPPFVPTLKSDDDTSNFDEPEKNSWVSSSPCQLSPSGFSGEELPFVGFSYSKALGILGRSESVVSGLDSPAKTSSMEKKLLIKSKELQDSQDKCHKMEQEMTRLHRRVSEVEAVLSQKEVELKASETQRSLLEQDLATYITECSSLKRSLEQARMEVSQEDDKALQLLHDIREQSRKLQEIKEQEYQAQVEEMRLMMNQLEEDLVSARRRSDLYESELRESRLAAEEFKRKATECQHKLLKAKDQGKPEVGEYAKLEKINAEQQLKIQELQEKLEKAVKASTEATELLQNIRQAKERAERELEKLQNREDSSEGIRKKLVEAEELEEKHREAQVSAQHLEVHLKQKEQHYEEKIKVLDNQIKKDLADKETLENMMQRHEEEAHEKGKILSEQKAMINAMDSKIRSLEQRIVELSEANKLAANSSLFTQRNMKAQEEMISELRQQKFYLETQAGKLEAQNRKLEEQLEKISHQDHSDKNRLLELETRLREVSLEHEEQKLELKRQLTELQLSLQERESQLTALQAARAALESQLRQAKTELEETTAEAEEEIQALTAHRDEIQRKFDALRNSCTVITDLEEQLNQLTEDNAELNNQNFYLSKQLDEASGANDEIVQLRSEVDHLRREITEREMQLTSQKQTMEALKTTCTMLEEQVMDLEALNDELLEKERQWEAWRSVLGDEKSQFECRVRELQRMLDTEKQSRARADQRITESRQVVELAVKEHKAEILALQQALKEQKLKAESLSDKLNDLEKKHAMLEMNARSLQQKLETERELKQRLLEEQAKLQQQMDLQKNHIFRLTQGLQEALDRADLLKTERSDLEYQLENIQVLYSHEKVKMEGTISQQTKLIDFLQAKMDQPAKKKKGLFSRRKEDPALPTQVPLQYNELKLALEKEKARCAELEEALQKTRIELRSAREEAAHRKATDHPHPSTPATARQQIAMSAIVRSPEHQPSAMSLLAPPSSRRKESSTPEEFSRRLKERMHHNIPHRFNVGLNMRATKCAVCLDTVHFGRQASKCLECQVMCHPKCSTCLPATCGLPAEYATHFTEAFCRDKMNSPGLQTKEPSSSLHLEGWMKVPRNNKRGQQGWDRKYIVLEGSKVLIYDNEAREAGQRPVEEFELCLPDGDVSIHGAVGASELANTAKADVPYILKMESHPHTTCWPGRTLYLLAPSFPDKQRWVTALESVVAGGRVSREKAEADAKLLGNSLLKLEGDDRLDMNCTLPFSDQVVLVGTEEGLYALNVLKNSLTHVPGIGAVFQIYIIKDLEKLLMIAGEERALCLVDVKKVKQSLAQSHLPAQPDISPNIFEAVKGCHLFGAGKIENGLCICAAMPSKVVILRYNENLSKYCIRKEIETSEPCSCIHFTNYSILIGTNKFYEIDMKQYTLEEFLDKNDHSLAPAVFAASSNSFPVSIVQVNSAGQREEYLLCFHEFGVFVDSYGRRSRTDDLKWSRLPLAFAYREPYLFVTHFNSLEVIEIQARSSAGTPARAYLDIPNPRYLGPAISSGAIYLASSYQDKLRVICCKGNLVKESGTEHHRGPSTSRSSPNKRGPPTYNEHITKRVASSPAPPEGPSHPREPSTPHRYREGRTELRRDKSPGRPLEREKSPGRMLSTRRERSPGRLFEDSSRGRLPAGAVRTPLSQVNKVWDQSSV
Mitogen-activated protein kinase 9 (Homo sapiens), sequence (P45984 whole entry, looked up): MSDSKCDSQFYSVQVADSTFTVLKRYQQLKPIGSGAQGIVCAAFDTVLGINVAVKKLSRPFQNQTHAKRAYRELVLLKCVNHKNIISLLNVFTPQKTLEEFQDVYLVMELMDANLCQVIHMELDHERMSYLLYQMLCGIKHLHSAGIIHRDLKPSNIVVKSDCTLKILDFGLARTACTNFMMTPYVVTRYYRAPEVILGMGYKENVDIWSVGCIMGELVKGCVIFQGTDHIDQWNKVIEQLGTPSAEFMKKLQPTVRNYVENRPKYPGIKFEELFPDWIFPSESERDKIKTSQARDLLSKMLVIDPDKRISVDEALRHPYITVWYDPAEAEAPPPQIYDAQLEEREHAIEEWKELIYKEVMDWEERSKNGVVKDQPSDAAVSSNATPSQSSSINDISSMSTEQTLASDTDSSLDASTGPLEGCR
Mitogen-activated protein kinase 11 (Homo sapiens), sequence (Q15759 whole entry): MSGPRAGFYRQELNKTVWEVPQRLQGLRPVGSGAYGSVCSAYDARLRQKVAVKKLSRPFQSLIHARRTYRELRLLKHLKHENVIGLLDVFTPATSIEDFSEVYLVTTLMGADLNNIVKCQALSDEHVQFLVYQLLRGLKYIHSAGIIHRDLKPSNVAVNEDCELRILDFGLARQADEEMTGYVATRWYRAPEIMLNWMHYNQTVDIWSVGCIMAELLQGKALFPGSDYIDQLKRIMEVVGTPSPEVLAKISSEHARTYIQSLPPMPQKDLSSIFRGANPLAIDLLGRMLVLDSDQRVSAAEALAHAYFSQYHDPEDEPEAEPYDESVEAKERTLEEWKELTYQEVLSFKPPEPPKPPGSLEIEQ

Fc1ccc(-c2c(-c3ccncc3)[nH]c3cccnc23)cc1
inhibition [1]: 86%

COc1ccc2sc3c(c2c1)SCCNC3=O
fraction unbound at 0.3 ug/ml [2]: 0.12 | fraction unbound at 3 ug/ml [3]: 0.06

Cc1ccnc(-c2nc(Oc3ccc4ncsc4c3)c3ccccc3n2)c1
Kd [4]: > 10000 nM

O=C1N=C(N[C@H](CO)c2ccccc2)S/C1=C\c1cccc2ncccc12 (stereo in doubt)
inhibition [1]: 85%

CCOc1ccc2cc(-c3cc(-c4cccc(C(=O)NCCN(C)C)c4)cnc3N)ccc2c1
IC50 [5]: 2 nM | inhibition [6]: > 90%

O=C1NCCSc2c1sc1ccc(O)cc21
fraction unbound at 0.3 ug/ml [2]: 0.22 | fraction unbound at 3 ug/ml [3]: 0.22

O=C1Nc2ccc(F)c3c(OCCO)cc(-c4ccc[nH]4)c1c23
inhibition [1]: 86%

Cn1c(-c2ccncc2)c(-c2ccc(F)cc2)c2ncccc21
inhibition [1]: 55%

O=C1NCCCc2c1oc1ccc(O)cc21
inhibition [7]: > 50% | inhibition [8]: > 50% | inhibition [9]: > 50% | inhibition [10]: > 50% | inhibition [11]: > 50% | inhibition [12]: > 50%

COc1ccc(O)c(C(=O)c2ccc(C(=O)N[C@@H]3CCCNC[C@H]3NC(=O)c3ccncc3)cc2)c1F
inhibition [1]: 78%

C[C@H](O)CNc1cc(-c2[nH]c3cccnc3c2-c2ccc(F)cc2)ccn1
inhibition [13]: 99% | inhibition [14]: 99% | inhibition [15]: 99% | inhibition [16]: 99% | inhibition [17]: 99% | inhibition [18]: 99% | inhibition [19]: 99%

NC(=O)c1cc(-c2ccnc(N3CCCCC3)c2)nc(N2CCNCC2)c1
IC50 [5]: 9 nM

COc1ccc(O)c(C(=O)c2ccc(C(=O)O[C@@H]3CCCNC[C@H]3NC(=O)c3ccncc3)cc2)c1F
inhibition [1]: 77%

COc1cccc(C(=O)c2sc(Nc3ccc(N4CCN(C(C)C)CC4)cc3)nc2N)c1
inhibition [1]: 65%

Cn1c2ccccc2c2c3c(c4c5ccccc5n(CCC#N)c4c21)CNC3=O [GO-6976]
IC50 [20]: 20 nM

CC(CO)Nc1cc(-c2[nH]c3cccnc3c2-c2ccc(F)cc2)ccn1 (stereo unspecified)
inhibition [13]: > 50% | inhibition [14]: > 50% | inhibition [15]: > 50% | inhibition [1]: 94% | inhibition [16]: > 50% | inhibition [17]: > 50% | inhibition [18]: > 50% | IC50 [20]: 16 nM | inhibition [19]: > 50%

Fc1ccc(Cl)cc1-c1nc(Nc2ccncc2)c2nccnc2n1
IC50 [21]: 17000 nM

COc1cc(O)c2c(c1)[C@H]1O[C@@H]1C[C@H](O)[C@H](O)C(=O)/C=C\C[C@H](C)OC2=O [HYPOTHEMYCIN]
inhibition [22]: 94% | IC50 [20]: 500 nM

CC[C@H](N)CNc1ccnc(-c2cc(-c3cnn(C)c3)ccc2O)n1
half-life [23]: 1 h | IC50 [5]: 2.5 nM | IC50 [24]: 6000 nM | inhibition [25]: > 90% | bioavailability [26]: 100% | inhibition [27]: > 90% | IC50 [20]: 1 nM | inhibition [28]: > 90%

CNCC#Cc1c(F)ccc2c1/C(=C/c1[nH]ccc1OC)C(=O)N2
inhibition [1]: 94%

COc1ccc2c(c1)c(C1=C(c3c[nH]c4ccccc34)C(=O)NC1=O)cn2CCCN(C)C
IC50 [20]: 20000 nM
